Patent US12157722B1, “Crystalline hydrochloride salts of N-ethyl-2-(5-fluoro-1H-indol-3-yl)-N-methylethan-1-amine” (Gilgamesh Pharmaceuticals, Inc., priority 2023, dated 2024)

Experiments:
[1] = Exposure of dry cake to humidity, solid form checked by XRPD; type: physicochemical; settings: for XRPD pattern, dry cake exposed to humidity: monofumarate solids exposed to humidity (90% RH/30° C.)
[2] = Dynamic Vapor Sorption (DVS); type: physicochemical; settings: 25° C., 75% RH
Description: Dynamic Vapor Sorption (DVS) was performed using a Q5000SA. The sample (5-15 mg) was loaded into a metallic quartz sample pan, suspended from a microbalance, and exposed to a humidified stream of nitrogen gas. Weight changes were relative to a matching empty reference pan opposite the sample, suspended from the microbalance. The sample was held for a minimum of 10 min at each level and only progressed to the next humidity level if there was <0.002% change in weight between measurements (interval: 5 s) or 45 min had elapsed (for 5-65% RH) or 2 h had elapsed (for 80 and 95% RH). The following programs were used: • 1—Equilibration at 50% RH • 2—50% to 5%. (50%, 35%, 20%, and 5%) • 3—5% to 95%(5%, 20%, 35%, 50%, 65%, 80%, and 95%) • 4—95% to 5%(95%, 80%, 65%, 50%, 35%, 20%, and 5%) • 5—5% to 50% (5%, 20%, 35%, and 50%) • 1—Equilibration at 50% RH • 2—50% to 2%. (50%, 40%, 30%, 20%, 10%, and 2%) • 3—2% to 75%(2%, 10%, 20%, 30%, 40%, 50%, 60%, 70% and 75%) • 4—75% to 2%(75%, 70%, 60%, 50%, 40%, 30%, 20%, 10% and 2%) • 5—2% to 50% (2%, 10%, 20%, 30%, 40% and 50%) • 1—Equilibration at 50% RH • 2—50% to 2%.(50%, 40%, 30%, 20%, 10%, and 2%) • 3—2% to 65% (2%, 10%, 20%, 30%, 40%, 50%, 60% and 65%) • 4—65% to 2% (65%, 60%, 50%, 40%, 30%, 20%, 10% and 2%) • 5—2% to 50% (2%, 10%, 20%, 30%, 40% and 50%). […]

Row | SMILES | XRPD pattern, dry cake exposed to humidity [1] | other results
1 | CCN(C)CCc1c[nH]c2ccc(F)cc12.O=C(O)/C=C/C(=O)O [monofumarate Form 1, N-ethyl-2-(5-fluoro-1H-indol-3-yl)-N-methylethan-1-amine monofumarate Form 1] | Form 1 | 
2 | CCN(C)CCc1c[nH]c2ccc(F)cc12.Cl [hydrochloride Form 1, N-ethyl-2-(5-fluoro-1H-indol-3-yl)-N-methylethan-1-amine hydrochloride Form 1] |  | DVS isotherm, equilibration behaviour [2]: did not reach equilibrium at 75% RH
3 | CCN(C)CCc1c[nH]c2ccc(F)cc12.O=C(O)/C=C/C(=O)O [monofumarate Form 2, N-ethyl-2-(5-fluoro-1H-indol-3-yl)-N-methylethan-1-amine monofumarate Form 2] | slowly converted to Form 1 | 
4 | CCN(C)CCc1c[nH]c2ccc(F)cc12.CCN(C)CCc1c[nH]c2ccc(F)cc12.O=C(O)/C=C/C(=O)O [hemifumarate Form 1, N-ethyl-2-(5-fluoro-1H-indol-3-yl)-N-methylethan-1-amine hemifumarate Form 1] |  | XRPD pattern, Humid ([1]; hemifumarate dry cake from EtOH:MTBE (1:1 vol.) exposed to humidity): deliquescent
